Results reported in patent publication US10077261B2, “Imidazolin-5-one derivative useful as FASN inhibitors for the treatment of cancer” (Janssen Pharmaceutica NV, priority 2012, dated 2018).

How the values were obtained:
[1] = target: T1, hFASN enzyme (full length) (Homo sapiens, UniProt P49327); assay: Fatty Acid Synthase (FASN) inhibition scintillation proximity assay; assay type: biochemical; conditions: for inhibition at 10 µM: read-out: Human FASN % inhibition @ 10 μM, 10 μM test compound; for IC50: read-out: Human FASN pIC50 (converted)
T1 construct: 10 μL hFASN enzyme (full length, 300 ng, purified in house); made in house
T1 sequence (P49327 whole entry): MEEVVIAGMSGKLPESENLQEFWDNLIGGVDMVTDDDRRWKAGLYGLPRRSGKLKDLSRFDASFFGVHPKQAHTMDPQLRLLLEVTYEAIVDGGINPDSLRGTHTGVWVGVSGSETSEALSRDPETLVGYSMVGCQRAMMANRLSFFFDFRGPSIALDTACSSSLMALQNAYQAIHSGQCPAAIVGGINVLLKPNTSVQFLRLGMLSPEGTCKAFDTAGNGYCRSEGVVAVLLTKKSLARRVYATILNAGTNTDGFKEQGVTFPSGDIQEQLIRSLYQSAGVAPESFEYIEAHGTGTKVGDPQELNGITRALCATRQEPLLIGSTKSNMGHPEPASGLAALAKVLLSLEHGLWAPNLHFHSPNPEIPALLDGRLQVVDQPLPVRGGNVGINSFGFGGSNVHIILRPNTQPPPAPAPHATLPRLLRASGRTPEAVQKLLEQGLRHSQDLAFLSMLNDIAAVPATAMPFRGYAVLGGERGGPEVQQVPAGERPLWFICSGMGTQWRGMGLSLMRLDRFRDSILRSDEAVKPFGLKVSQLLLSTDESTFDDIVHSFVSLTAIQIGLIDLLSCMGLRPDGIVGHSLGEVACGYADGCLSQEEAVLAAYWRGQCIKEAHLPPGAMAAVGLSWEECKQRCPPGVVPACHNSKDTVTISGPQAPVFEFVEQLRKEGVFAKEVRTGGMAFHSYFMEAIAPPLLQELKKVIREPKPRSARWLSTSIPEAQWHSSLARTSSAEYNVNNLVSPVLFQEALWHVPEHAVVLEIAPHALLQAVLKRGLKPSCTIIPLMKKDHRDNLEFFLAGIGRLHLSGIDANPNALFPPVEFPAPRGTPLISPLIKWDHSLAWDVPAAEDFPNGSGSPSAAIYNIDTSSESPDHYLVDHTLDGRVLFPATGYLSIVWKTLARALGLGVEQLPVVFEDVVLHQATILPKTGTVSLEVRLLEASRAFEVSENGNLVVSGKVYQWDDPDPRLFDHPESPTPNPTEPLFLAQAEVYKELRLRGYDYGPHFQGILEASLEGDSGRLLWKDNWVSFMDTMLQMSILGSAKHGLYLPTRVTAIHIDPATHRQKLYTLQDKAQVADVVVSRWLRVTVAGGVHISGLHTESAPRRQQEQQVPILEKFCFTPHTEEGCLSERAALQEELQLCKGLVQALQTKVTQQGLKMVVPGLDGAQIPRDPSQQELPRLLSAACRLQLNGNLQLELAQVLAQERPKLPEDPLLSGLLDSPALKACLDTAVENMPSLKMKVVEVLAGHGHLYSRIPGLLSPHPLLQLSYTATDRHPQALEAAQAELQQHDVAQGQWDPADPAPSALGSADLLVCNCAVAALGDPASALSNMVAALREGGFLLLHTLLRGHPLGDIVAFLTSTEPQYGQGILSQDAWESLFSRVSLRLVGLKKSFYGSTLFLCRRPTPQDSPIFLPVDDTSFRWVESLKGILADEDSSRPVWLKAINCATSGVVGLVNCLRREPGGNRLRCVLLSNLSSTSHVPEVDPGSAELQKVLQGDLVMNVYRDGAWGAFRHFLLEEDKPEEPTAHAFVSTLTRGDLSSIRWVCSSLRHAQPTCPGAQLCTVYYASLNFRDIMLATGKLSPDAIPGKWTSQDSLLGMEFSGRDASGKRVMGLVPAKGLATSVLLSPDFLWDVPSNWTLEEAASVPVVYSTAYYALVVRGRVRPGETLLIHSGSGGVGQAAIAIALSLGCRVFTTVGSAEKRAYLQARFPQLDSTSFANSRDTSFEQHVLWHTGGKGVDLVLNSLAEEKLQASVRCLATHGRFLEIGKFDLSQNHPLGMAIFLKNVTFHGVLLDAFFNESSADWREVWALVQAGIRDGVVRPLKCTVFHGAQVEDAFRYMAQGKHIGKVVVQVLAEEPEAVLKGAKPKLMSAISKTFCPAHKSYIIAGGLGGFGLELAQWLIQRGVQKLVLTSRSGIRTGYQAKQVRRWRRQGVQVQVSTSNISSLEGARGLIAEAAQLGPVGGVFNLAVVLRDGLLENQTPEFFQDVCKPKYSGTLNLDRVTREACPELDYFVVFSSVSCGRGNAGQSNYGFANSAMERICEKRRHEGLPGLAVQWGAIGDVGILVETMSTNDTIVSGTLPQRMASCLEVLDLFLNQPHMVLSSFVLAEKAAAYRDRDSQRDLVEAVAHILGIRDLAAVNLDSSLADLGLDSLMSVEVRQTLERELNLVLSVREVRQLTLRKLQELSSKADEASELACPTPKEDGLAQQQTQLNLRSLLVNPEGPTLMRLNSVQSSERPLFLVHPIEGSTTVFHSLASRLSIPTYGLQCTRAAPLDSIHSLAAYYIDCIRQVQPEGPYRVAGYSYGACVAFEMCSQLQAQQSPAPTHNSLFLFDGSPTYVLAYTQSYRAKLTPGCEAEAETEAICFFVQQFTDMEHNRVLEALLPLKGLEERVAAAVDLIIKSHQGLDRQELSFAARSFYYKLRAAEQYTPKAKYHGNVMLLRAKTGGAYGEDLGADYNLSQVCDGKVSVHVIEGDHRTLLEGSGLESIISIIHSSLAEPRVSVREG
Summary of the method: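 Scintillation proximity format: in-house full-length enzyme, 300 ng per well, pH 7.5 phosphate/DTT buffer, ³H-acetyl-CoA and malonyl-CoA. Emission counted on LEADseeker at 610 nm at least 24 h after stopping.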

A2780 ovarian cells [2] = assay: A2780 ovarian cell proliferation assay in lipid reduced medium, with palmitate (MTT); assay type: cell-based; conditions: Homo sapiens, A2780, 96 h; read-out: pIC50 A2780 Ovarian Cell, With Palmitate (converted)
Summary of the method: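 In this palmitate-supplemented format, compound dilutions (30 μM down to 0.01 μM) are added to cells in lipid-reduced serum with 25 μM palmitate, 0.2% fatty-acid-free BSA and 0.25% ethanol. After four days (96 h) MTT absorbance at 544 nm is recorded and fitted by minimum sum of squares.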

A2780 ovarian cells [3] = assay: A2780 ovarian cell proliferation assay in lipid reduced medium, without palmitate (MTT); assay type: cell-based; conditions: Homo sapiens, A2780, 96 h; read-out: pIC50 A2780 Ovarian Cell, Without Palmitate (converted)
[4] = test system: LNCaP-Vancouver prostate cells; assay: In vitro LNCaP Vancouver prostate cell proliferation assay in lipid reduced medium; assay type: cell-based; conditions: read-out: pIC50 LNCaP_Vancouver prostate cell (converted)
[5] = test system: PC-3M-Luc-C6 prostate cells; assay: In vitro PC-3M-Luc-C6 prostate cell proliferation assay in lipid reduced medium; assay type: cell-based; conditions: 96 h, read-out: pIC50 PC-3M-Luc-C6 prostate cell (converted)
[6] = target: Fatty Acid Synthase Keto-reductase Domain (FASN KR) (Homo sapiens, UniProt P49327); assay: Fatty Acid Synthase keto-reductase domain (FASN KR) inhibition, NADPH oxidation at 340 nm
Chain of Fatty Acid Synthase Keto-reductase Domain (FASN KR) (P49327 whole entry, the tested form may be a part): as the sequence (P49327 whole entry) above
Description: After 20 minutes incubation at room temperature the plate was measured again (T2).
The decrease in absorbance was calculated as (Absorbance before incubation T1)−(Absorbance following incubation T2).
A plot of Controlmin versus test compound concentration was fitted to a 4-parameter logistic curve using a non-linear least squares regression method.

Row | SMILES | inhibition at 10 µM [1] | IC50 [1] | IC50 (A2780 ovarian cells [2]) | IC50 (A2780 ovarian cells [3]) | IC50 [4] | IC50 [5] | IC50 [6]
1 | COc1ccc2cc(-c3ccc(C4=NC5(CC5)C(=O)N4CC4CN(C(=O)C5CC5)C4)c(F)c3)ccc2c1 [compound 351, 6-((1-(cyclopropanecarbonyl)azetidin-3-yl)methyl)-5-(2-fluoro-4-(6-methoxynaphthalen-2-yl)phenyl)-4,6-diazaspiro[2.4]hept-4-en-7-one] | 95% | 74.1 nM | 8510 nM | 28.2 nM | 57.5 nM | 13.8 nM | 61.7 nM
2 | Cc1cc2cc(-c3ccc(C4=NC5(CC5)C(=O)N4CC4CN(C(=O)C5(C)CC5)C4)c(F)c3)ccc2s1 [compound 352, 5-(2-fluoro-4-(2-methylbenzo[b]thiophen-5-yl)phenyl)-6-((1-(1-methylcyclopropanecarbonyl)azetidin-3-yl)methyl)-4,6-diazaspiro[2.4]hept-4-en-7-one] | 94% | 74.1 nM | 3020 nM | ~123 nM | 562 nM | 162 nM | 93.3 nM
3 | Cc1cc2cc(-c3ccc(C4=NC5(CC5)C(=O)N4CC4CN(C(=O)C5CC5)C4)c(F)c3)ccc2o1 [compound 353, 6-((1-(cyclopropanecarbonyl)azetidin-3-yl)methyl)-5-(2-fluoro-4-(2-methylbenzofuran-5-yl)phenyl)-4,6-diazaspiro[2.4]hept-4-en-7-one] | 101% | 55 nM | 6030 nM | 245 nM | 1150 nM | 437 nM | 107 nM
4 | Cc1cc2cc(-c3ccc(C4=NC5(CC5)C(=O)N4C[C@@H]4CCN(C(=O)C5(O)CC5)C4)c(F)c3)ccc2s1 [compound 354, (R)-5-(2-fluoro-4-(2-methylbenzo[b]thiophen-5-yl)phenyl)-6-((1-(1-hydroxycyclopropanecarbonyl)pyrrolidin-3-yl)methyl)-4,6-diazaspiro[2.4]hept-4-en-7-one] | 100% | 50.1 nM | > 10000 nM | 30.9 nM | 245 nM | 35.5 nM | 112 nM
5 | Cc1nc2cc(-c3ccc(C4=NC5(CC5)C(=O)N4CC4CN(C(=O)C5CC5)C4)c(F)c3)ccc2s1 [compound 356, 6-((1-(cyclopropanecarbonyl)azetidin-3-yl)methyl)-5-(2-fluoro-4-(2-methylbenzo[d]thiazol-5-yl)phenyl)-4,6-diazaspiro[2.4]hept-4-en-7-one] | 99% | 102 nM | > 10000 nM | ~162 nM | 1480 nM | ~324 nM | 479 nM
6 | CC1(C(=O)N2CC(CN3C(=O)C4(CC4)N=C3c3ccc(-c4ccc5cc(F)ccc5c4)cc3F)C2)CC1 [compound 359, 5-(2-fluoro-4-(6-fluoronaphthalen-2-yl)phenyl)-6-((1-(1-methylcyclopropanecarbonyl)azetidin-3-yl)methyl)-4,6-diazaspiro[2.4]hept-4-en-7-one] | 95% | 39.8 nM | > 6170 nM | 8.13 nM | ~79.4 nM | 8.32 nM | 41.7 nM
7 | O=C(C1CC1)N1CC(CN2C(=O)C3(CC3)N=C2c2ccc(-c3ccc4ccccc4c3)cc2F)C1 [compound 368, 6-((1-(1-cyclopropanecarbonyl)azetidin-3-yl)methyl)-5-(2-fluoro-4-(naphthalen-2-yl)phenyl)-4,6-diazaspiro[2.4]hept-4-en-7-one] | 90% | 28.2 nM | 4470 nM | 21.4 nM | 214 nM | 28.8 nM | 58.9 nM
8 | O=C(C1CCO1)N1CC(CN2C(=O)C3(CC3)N=C2c2ccc(-c3ccc4cc(F)ccc4c3)cc2F)C1 (centres unmarked) [compound 369, 5-(2-fluoro-4-(6-fluoronaphthalen-2-yl)phenyl)-6-((1-(oxetan-2-carbonyl)azetidin-3-yl)methyl)-4,6-diazaspiro[2.4]hept-4-en-7-one] | 102% | 26.3 nM | 2090 nM | 4.27 nM | 45.7 nM | 10 nM | 37.2 nM

More lines, in order of falling IC50 [6], values ahead:

Row | inhibition at 10 µM [1] | IC50 [1] | IC50 (A2780 ovarian cells [2]) | IC50 (A2780 ovarian cells [3]) | IC50 [4] | IC50 [5] | IC50 [6] | SMILES
9 | 96% | 77.6 nM | > 10000 nM | ~42.7 nM | ~295 nM | ~56.2 nM | 126 nM | Cn1nccc1-c1ccc(-c2ccc(C3=NC4(CC4)C(=O)N3C[C@@H]3CCN(C(=O)C4(C)CC4)C3)c(F)c2)cc1 [compound 362]
10 | 96% | 63.1 nM | > 10000 nM | 28.8 nM | 282 nM | 40.7 nM | 87.1 nM | Cn1cnc2cc(-c3ccc(C4=NC5(CC5)C(=O)N4CC4CN(C(=O)C5CC5)C4)c(F)c3)ccc21 [compound 348, 6-((1-(cyclopropanecarbonyl)azetidin-3-yl)methyl)-5-(2-fluoro-4-(1-methyl-1H-benzo[d]imidazol-5-yl)phenyl)-4,6-diazaspiro[2.4]hept-4-en-7-one]
11 | 97% | 39.8 nM | > 10000 nM | 22.4 nM | 372 nM | 25.1 nM | 63.1 nM | Cn1ncc2cc(-c3ccc(C4=NC5(CC5)C(=O)N4CC4CN(C(=O)C5(C)CC5)C4)c(F)c3)ccc21 [compound 357, 5-(2-fluoro-4-(1-methyl-1H-indaozl-5-yl)phenyl)-6-((1-(1-methylcyclopropanecarbonyl)azetidin-3-yl)methyl)-4,6-diazaspiro[2.4]hept-4-en-7-one]
12 | 102% | 16.6 nM | > 10000 nM | ~30.9 nM | 138 nM | 33.9 nM | 58.9 nM | O=C(C1CC1)N1CC(CN2C(=O)C3(CC3)N=C2c2ccc(-c3ccc4cc(F)ccc4c3)cc2F)C1 [compound 349, 6-((1-(cyclopropanecarbonyl)azetidin-3-yl)methyl)-5-(2-fluoro-4-(6-fluoronaphthalen-2-yl)phenyl)-4,6-diazaspiro[2.4]hept-4-en-7-one]
13 | 99% | 15.1 nM | > 10000 nM | ~28.2 nM | 81.3 nM | 22.4 nM | 55 nM | O=C(C1CC1)N1CC(CN2C(=O)C3(CC3)N=C2c2ccc(-c3ccc4cccc(F)c4c3)cc2F)C1 [compound 350, 6-((1-(cyclopropanecarbonyl)azetidin-3-yl)methyl)-5-(2-fluoro-4-(8-fluoronaphthalen-2-yl)phenyl)-4,6-diazaspiro[2.4]hept-4-en-7-one]
14 | 97% | 23.4 nM | ~10000 nM | 6.46 nM | 56.2 nM | 7.59 nM | 53.7 nM | O=C(N1CC(CN2C(=O)C3(CC3)N=C2c2ccc(-c3ccc4cc(F)ccc4c3)cc2F)C1)C1(O)CC1 [compound 365, 5-(2-fluoro-4-(6-fluoronaphthalen-2-yl)phenyl)-6-((1-(1-hydroxycyclopropanecarbonyl)azetidin-3-yl)methyl)-4,6-diazaspiro[2.4]hept-4-en-7-one]
15 | 100% | 30.9 nM | > 10000 nM | 3.16 nM | 77.6 nM | 14.8 nM | 51.3 nM | Cn1cc(-c2ccc(-c3ccc(C4=NC5(CC5)C(=O)N4CC4CN(C(=O)C5(C)CC5)C4)c(F)c3)cc2)cn1 [compound 358, 5-(3-fluoro-4′-(1-methyl-1H-pyrazol-4-yl)-[1,1′-biphenyl]-4-yl)-6-((1-(1-methylcyclopropanecarbonyl)azetidin-3-yl)methyl)-4,6-diazaspiro[2.4]hept-4-en-7-one]
16 | 103% | 39.8 nM | > 10000 nM | ~3.63 nM | ~12.9 nM | 3.24 nM | 45.7 nM | Cn1ncc2cc(-c3ccc(C4=NC5(CC5)C(=O)N4C[C@@H]4CCN(C(=O)C5(C)CC5)C4)c(F)c3)ccc21 [compound 361, (R)-5-(2-fluoro-4-(1-methyl-1H-indazol-5-yl)phenyl)-6-((1-(1-methylcyclopropanecarbonyl)pyrrolidin-3-yl)methyl)-4,6-diazaspiro[2.4]hept-4-en-7-one]
17 | 96% | 30.2 nM | > 10000 nM | 30.2 nM | 575 nM | 58.9 nM | 42.7 nM | Cc1cc2cc(-c3ccc(C4=NC5(CC5)C(=O)N4C[C@@H]4CCN(C(=O)C5(O)CC5)C4)c(F)c3)ccc2o1 [compound 355, (R)-5-(2-fluoro-4-(2-methylbenzofuran-5-yl)phenyl)-6-((1-(1-hydroxycyclopropanecarbonyl)pyrrolidin-3-yl)methyl)-4,6-diazaspiro[2.4]hept-4-en-7-one]
